Test results as given in PMC3828927, “Heterotropic Effect of β-lactam Antibiotics on Antioxidant Property of Haptoglobin (2-2)-Hemoglobin Complex” (Iranian Journal of Pharmaceutical Research : IJPR, 2011).

Molecular target: T1, Hp (2-2)-Hb complex (Homo sapiens, UniProt P68871+P69905)
T1 construct: gene HBA1; with Haptoglobin
Assay: guaiacol peroxidase assay, A470, clearance plot
Type: biochemical
Settings: activator (heterotropic); binding site not shown; varied H2O2, 0.03 M guaiacol, 64 nM complex, 50 mM phosphate pH 7.5, 37 C

T1 sequence (P69905 2-142): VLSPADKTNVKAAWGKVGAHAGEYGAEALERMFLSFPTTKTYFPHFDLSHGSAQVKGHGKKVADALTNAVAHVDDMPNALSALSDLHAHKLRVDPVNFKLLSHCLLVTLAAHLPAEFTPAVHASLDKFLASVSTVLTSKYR
T1 sequence (P68871 2-147): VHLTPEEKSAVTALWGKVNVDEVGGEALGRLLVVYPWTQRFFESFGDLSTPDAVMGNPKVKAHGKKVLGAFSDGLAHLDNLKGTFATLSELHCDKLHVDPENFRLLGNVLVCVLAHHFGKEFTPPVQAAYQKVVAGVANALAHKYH
T1 sequence (P00738 19-160 partner): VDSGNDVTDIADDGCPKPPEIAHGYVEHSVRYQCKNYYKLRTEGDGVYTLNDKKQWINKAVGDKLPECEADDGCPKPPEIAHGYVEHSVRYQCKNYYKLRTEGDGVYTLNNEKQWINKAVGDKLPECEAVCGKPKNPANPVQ
T1 sequence (P00738 162-406 partner): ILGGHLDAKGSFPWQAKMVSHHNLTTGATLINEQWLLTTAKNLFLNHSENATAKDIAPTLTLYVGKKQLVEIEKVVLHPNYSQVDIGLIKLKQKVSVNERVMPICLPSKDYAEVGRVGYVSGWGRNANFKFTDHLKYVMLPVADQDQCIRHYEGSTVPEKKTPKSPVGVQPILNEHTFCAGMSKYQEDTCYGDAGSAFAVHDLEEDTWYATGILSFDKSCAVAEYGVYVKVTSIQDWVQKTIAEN

% increase in peroxidase activity (CLmax) at 14 μg/mL: ~ 16%
Structure (SMILES): CC1(C)S[C@@H]2[C@H](NC(=O)[C@H](N)c3ccccc3)C(=O)N2[C@H]1C(=O)O [ampicillin]
